This is an account of results in US11345825B2, “Aqueous pigment dispersion” (KAO CORPORATION, priority 2016, dated 2022).

This series can be described thus: Measurement of pKa of ethanolamine (potentiometric titration). The note with it: aqueous solution of the ethanolamine.

For orientation: pKa means the negative logarithm of the acid dissociation constant. High values mean a weaker acid or stronger base, low ones a stronger acid or weaker base. The compound `COCCOCCN(CCOCCOC)CCOCCOC` [Tris[2-(2-methoxyethoxy)ethyl]amine, tris[2-(2-methoxyethoxy)ethyl]amine] gave a pKa of 7.48.
